Measured values reported in paper PMC7168207, “Dibasic Derivatives of Phenylcarbamic Acid as Prospective Antibacterial Agents Interacting with Cytoplasmic Membrane” (Antibiotics, 2020).
Several values for one entry are separate records, joined by “and”; a condition that tells them apart may be missing. Equal entries are not always repeated.

Key:
[1] = system: S. aureus ATCC 29213; assay: MIC, broth microdilution; format: cell-based, Staphylococcus aureus; settings: Staphylococcus aureus, ATCC29213; SA = S. aureus ATCC 29213; read-out: MICs
Protocol: (§1) The modified broth microdilution method was used for in vitro evaluation of minimum inhibitory concentration. A small portion of bacterial colony cultivated overnight onto nutrient agar (Oxoid, Basingstoke, UK) with 5% bovine blood was suspended in sterile phosphate-buffered saline to get cell density 0.5 McFarland. This inoculum was diluted to reach the final concentration of bacterial cells 5 × 10^5 CFU/mL in the wells. […] For plates with staphylococci, cation adjusted Mueller–Hinton (CaMH) broth (Oxoid) was used; enterococci were cultivated in brain heart infusion (BHI, Oxoid). […] A drug-free control and a sterility control were included. Inoculated plates were incubated in aerobic atmosphere at 37 °C overnight. […] After evaluation of MICs, 10 µL of aliquots from the wells were put onto Mueller–Hinton agar. The agar plates were cultivated at 37 °C for 24 h. The minimum bactericidal concentration (MBC) was defined as the lowest concentration of the compound that killed 99.9% of the bacteria compared to the starting inoculum.

[2] = system: methicillin-resistant S. aureus 63718; assay: MIC, broth microdilution; format: cell-based, Staphylococcus aureus; settings: Staphylococcus aureus; MRSA1 = S. aureus 63718; read-out: MICs
Protocol: as §1

[3] = system: methicillin-resistant S. aureus SA 3202; assay: MIC, broth microdilution; format: cell-based, Staphylococcus aureus; settings: Staphylococcus aureus; MRSA3 = SA 3202; read-out: MICs
Protocol: as §1

[4] = system: methicillin-resistant S. aureus SA 630; assay: MIC, broth microdilution; format: cell-based, Staphylococcus aureus; settings: Staphylococcus aureus; MRSA2 = SA 630; read-out: MICs
Protocol: as §1

[5] = system: E. faecalis ATCC 29212; assay: MIC, broth microdilution; format: cell-based, Enterococcus faecalis; settings: Enterococcus faecalis, ATCC 29212 / ATCC 29213; EF = E. faecalis ATCC 29213
Protocol: as §1

[6] = system: vancomycin-resistant enterococci VRE 342B; assay: MIC, broth microdilution; format: cell-based, Enterococcus faecalis; settings: Enterococcus; VRE1 = VRE 342B; read-out: MICs
Protocol: as §1

[7] = system: vancomycin-resistant enterococci VRE 368; assay: MIC, broth microdilution; format: cell-based, Enterococcus faecalis; settings: Enterococcus; VRE2 = VRE 368; read-out: MICs
Protocol: as §1

[8] = system: vancomycin-resistant enterococci VRE 725B; assay: MIC, broth microdilution; format: cell-based, Enterococcus faecalis; settings: Enterococcus; VRE3 = VRE 725B; read-out: MICs
Protocol: as §1

[9] = system: Candida albicans CCM 8261; assay: minimum fungistatic concentration, RPMI 1640; format: cell-based; settings: CCM8261, CA = C albicans CCM 8261, 48 h
Protocol: Fungistatic activity was tested similarly in RPMI (Roswell Park Memorial Institute) 1640 medium (Sigma, Pool, UK). […] A growth control and sterility control were included. The colonies of C. albicans grown overnight on Sabourad dextrose agar were suspended in sterile phosphate-buffered saline (PBS) to get cell density 0.5 McFarland. The inoculum was diluted to get a final concentration of 10^3 CFU/mL in the wells. Plates were inoculated and cultivated at 37 °C for 48 h. The minimum fungistatic concentration was visually evaluated as the lowest concentration of a tested compound, which inhibited 100% of yeast growth. 5-Flucytosin (Sigma, UK) was used as a positive control.

[10] = system: human monocytic leukemia THP-1 cells; assay: in vitro antiproliferative assay (WST-1); format: cell-based; settings: Homo sapiens, THP-1, 24 h, THP-1 cells, WST-1, 24 h; read-out: Tox IC50
Protocol: The preliminary in vitro screening of the antiproliferative effect of the investigated compounds was performed using a Water Soluble Tetrazolium salts-1 (WST-1) assay kit and a human monocytic leukemia THP-1 cell line by means of the method described recently. The principle of the WST-1 assay kit is the […] mitochondrial dehydrogenases by antiproliferative compounds. The activity of this enzyme directly correlates with the number of metabolically active cells in the culture. The antiproliferative effect was evaluated as the IC50 value (the concentration of the compound causing 50% inhibition of cell proliferation).
Human monocytic leukemia THP-1 cells were used for in vitro antiproliferative assay. Cells were obtained from the European Collection of Cell Cultures (ECACC, Salisbury, UK) and routinely cultured in RPMI (Roswell Park Memorial Institute) 1640 medium supplemented with 10% fetal bovine serum, 2% L-glutamine, 1% penicillin, and streptomycin at 37 °C with 5% CO2. Cells were passaged at approximately one-week intervals. The antiproliferative activity of the compounds was determined using a Water Soluble Tetrazolium Salts-1 (WST-1, 2-(4-iodophenyl)-3-(4-nitrophenyl)-5-(2,4-disulfophenyl)-2H-tetrazolium) assay kit (Roche Diagnostics, Mannheim, Germany) according to the manufacturer’s instructions. The tested compounds were dissolved in DMSO and added in various compound concentrations to the cell suspension in the culture RPMI 1640 medium. The maximum concentration of DMSO in the assays never exceeded 0.1%. Subsequently, the cells were incubated at 37 °C with 5% CO2 for 24 h. For WST-1 assays, cells were seeded into 96-well plates (5 × 10^4 cells/well in 100 μL culture medium) in triplicate in serum-free RPMI 1640 medium, and measurements were taken 24 h after the treatment with the compounds. The median inhibition concentration values, IC50, were deduced through the production of a dose-response curve. All data were evaluated using GraphPad Prism 5.00 software (GraphPad Software, San Diego, CA, USA).

[11] = design: method as in PMID 30274224; settings: isocratic RP-HPLC, extrapolated lipophilicity index; cited from earlier work
[12] = design: method as in PMID 30274224; settings: cited from earlier work
[13] = design: method as in PMID 30274224; settings: methanolic solutions, c = 8.0 × 10^−5 M; cited from earlier work

SMILES | MIC [1] | MIC [2] | MIC [3] | MIC [4] | MIC [5] | MIC [6] | MIC [7] | MIC [8] | MIC [9] | IC50 [10] [µM] | log kw [11] | γ (surface tension, relative surface activity) [12] [N/m] | log ε2 (Ch-T) [13]
CCCCOc1ccccc1NC(=O)OC(CN(CCC)CCC)CN1CCCC1 (centres unmarked) [1a] | > 256 µg/mL and > 427 µM | > 256 µg/mL and > 427 µM | > 256 µg/mL and > 427 µM | > 256 µg/mL and > 427 µM | > 256 µg/mL and > 427 µM | > 256 µg/mL and > 427 µM | > 256 µg/mL and > 427 µM | > 256 µg/mL and > 427 µM | > 128 µg/mL and > 213 µM | 10.8 ± 1.11 | 3.7688 | 0.06464 | 4.19
CCCCCOc1ccccc1NC(=O)OC(CN(CCC)CCC)CN1CCCC1 (centres unmarked) [1b] | > 256 µg/mL and > 417 µM | > 256 µg/mL and > 417 µM | > 256 µg/mL and > 417 µM | > 256 µg/mL and > 417 µM | > 256 µg/mL and > 417 µM | > 256 µg/mL and > 417 µM | > 256 µg/mL and > 417 µM | > 256 µg/mL and > 417 µM | > 128 µg/mL and > 208 µM | 12.5 ± 1.22 | 4.0454 | 0.06366 | 4.05
CCCCCCOc1ccccc1NC(=O)OC(CN(CCC)CCC)CN1CCCC1 (centres unmarked) [1c] | > 256 µg/mL and > 407 µM | > 256 µg/mL and > 407 µM | > 256 µg/mL and > 407 µM | > 256 µg/mL and > 407 µM | > 256 µg/mL and > 407 µM | > 256 µg/mL and > 407 µM | > 256 µg/mL and > 407 µM | > 256 µg/mL and > 407 µM | > 128 µg/mL and > 203 µM | 15.4 ± 0.22 | 4.6049 | 0.06222 | 4.52
CCCCCCCOc1ccccc1NC(=O)OC(CN(CCC)CCC)CN1CCCC1 (centres unmarked) [1d] | > 256 µg/mL and > 398 µM | > 256 µg/mL and > 398 µM | > 256 µg/mL and > 398 µM | > 256 µg/mL and > 398 µM | > 256 µg/mL and > 398 µM | > 256 µg/mL and > 398 µM | > 256 µg/mL and > 398 µM | > 256 µg/mL and > 398 µM | > 128 µg/mL and 199 µM | 16.3 ± 0.7 | 4.9487 | 0.05985 | 4.08
CCCCOc1cccc(NC(=O)OC(CN(CCC)CCC)CN2CCCC2)c1 (centres unmarked) [1e] | 64 µg/mL and 129 µM | 64 µg/mL and 129 µM | 64 µg/mL and 129 µM | 64 µg/mL and 129 µM | 128 µg/mL and 259 µM | 32 µg/mL and 65.1 µM | 64 µg/mL and 129 µM | 32 µg/mL and 65.1 µM | > 128 µg/mL and > 259 µM | 4.2 ± 0.79 | 4.0258 | 0.06316 | 4.24
CCCCOc1ccccc1NC(=O)OC(CN(CCC)CCC)CN1CCCCCC1 (centres unmarked) [1i] | > 256 µg/mL and > 407 µM | > 256 µg/mL and > 407 µM | > 256 µg/mL and > 407 µM | > 256 µg/mL and > 407 µM | > 256 µg/mL and > 407 µM | > 256 µg/mL and > 407 µM | > 256 µg/mL and > 407 µM | > 256 µg/mL and > 407 µM | > 128 µg/mL and > 203 µM | 23.1 ± 0.95 | 4.4679 | 0.06302 | 4.08
CCCCCOc1ccccc1NC(=O)OC(CN(CCC)CCC)CN1CCCCCC1 (centres unmarked) [1j] | > 256 µg/mL and > 398 µM | > 256 µg/mL and > 398 µM | > 256 µg/mL and > 398 µM | > 256 µg/mL and > 398 µM | > 256 µg/mL and > 398 µM | > 256 µg/mL and > 398 µM | > 256 µg/mL and > 398 µM | > 256 µg/mL and > 398 µM | > 128 µg/mL and > 199 µM | 26.4 ± 1.91 | 4.8466 | 0.06206 | 4.22
CCCCCCOc1ccccc1NC(=O)OC(CN(CCC)CCC)CN1CCCCCC1 (centres unmarked) [1k] | > 256 µg/mL and > 390 µM | > 256 µg/mL and > 390 µM | > 256 µg/mL and > 390 µM | > 256 µg/mL and > 390 µM | > 256 µg/mL and > 390 µM | > 256 µg/mL and > 390 µM | > 256 µg/mL and > 390 µM | > 256 µg/mL and > 390 µM | > 128 µg/mL and > 195 µM | 31.2 ± 2.24 | 5.2359 | 0.06065 | 4.10
CCCCCCCOc1ccccc1NC(=O)OC(CN(CCC)CCC)CN1CCCCCC1 (centres unmarked) [1l] | > 256 µg/mL and > 382 µM | > 256 µg/mL and > 382 µM | > 256 µg/mL and > 382 µM | > 256 µg/mL and > 382 µM | > 256 µg/mL and > 382 µM | > 256 µg/mL and > 382 µM | > 256 µg/mL and > 382 µM | > 256 µg/mL and > 382 µM | > 128 µg/mL and > 191 µM | 29.75 ± 0.14 | 5.8966 | 0.05853 | 4.14
Nc1[nH]c(=O)ncc1F [5-FC, flucytosine, reference compound] | – | – | – | – | – | – | – | – | 1 µg/mL and 7.75 µM | – | – | – | –
CC1(C)S[C@@H]2[C@H](NC(=O)[C@H](N)c3ccccc3)C(=O)N2[C@H]1C(=O)O [AMP, ampicillin, reference compound] | 2 µg/mL and 5.72 µM | 16 µg/mL and 45.8 µM | > 16 µg/mL and > 45.8 µM | > 16 µg/mL and > 45.8 µM | – | – | – | 2 µg/mL and 5.72 µM | – | > 30 | – | – | –
CC[C@@]1(O)C(=O)OCc2c1cc1n(c2=O)Cc2cc3ccccc3nc2-1 [CMP, camptothecin, reference compound] | – | – | – | – | – | – | – | – | – | ~0.2 | – | – | –
O=C(O)c1cn(C2CC2)c2cc(N3CCNCC3)c(F)cc2c1=O [CPX, ciprofloxacin, reference compound] | – | > 16 µg/mL | > 16 µg/mL | > 16 µg/mL | – | – | – | – | – | – | – | – | –
